Values after ≈ are worked out from the molar mass of the structure shown.
Tests used:
P. morgani UC 3186 = assay: standard microplate test in BHI Agar (MIC), P. morgani UC 3186; type: cell-based; conditions: 20 h; P. morgani UC 3186; retest table, group (7β), (14β), neamine control; read-out: Minimum Inhibitory Concentration
Method: (§1) Compounds were also tested in a standard microplate test in Brain Heart Infusion (BHI) Agar, at a concentration of 1 mg/ml. Incubation is at 37° and end points are read at 20 hours. Brain Heart Infusion Agar (supplied by Difco Laboratories, Detroit, Michigan, U.S.A.) has the following composition:
(§2) Compounds (7β), (7α) and (9) were tested again along with compounds (11) and (14β) against a neamine control using the same conditions as given above.

K. pneumoniae UC 57 = assay: agar diffusion (standard agar disc plate) assay, K. pneumoniae UC 57; type: cell-based; set-up: unit: mm
Method: (§3) The novel intermediates, disclosed herein, are useful to make novel aminoglycoside antibiotics. These novel aminoglycoside antibiotics are antibacterially active, and, thus, they can be used in various environments to eradicate or control sensitive bacteria. Following are in vitro antibacterial test results for representative compounds of the subject invention. The results were obtained with a standard disc plate assay using 12.5 mm paper discs.
(§4) Compound (14β) was also tested against a series of bacteria on a standard agar disc plate assay, as described above.

E. coli UC 45 = assay: standard microplate test in BHI Agar (MIC), E. coli UC 45; type: cell-based; conditions: Escherichia coli, UC45, 20 h, E. coli UC 45; retest table, group (7β), (14β), neamine control; read-out: Minimum Inhibitory Concentration
Method: as §1, §2

S. hemolyticus UC 152 = assay: standard microplate test in BHI Agar (MIC), S. hemolyticus UC 152; type: cell-based, Streptococcus hemolyticus; conditions: Streptococcus pyogenes, UC152, 20 h; S. hemolyticus UC 152; retest table, group (7β), (14β), neamine control; read-out: Minimum Inhibitory Concentration
Method: as §1, §2

B. subtilis UC 564 = assay: agar diffusion (standard agar disc plate) assay, B. subtilis UC 564; type: cell-based, Bacillus subtilis; set-up: unit: mm
Method: as §3, §4

P. vulgaris UC 93 [1] = assay: agar diffusion (standard agar disc plate) assay, p. vulgaris UC 93; type: cell-based; set-up: unit: mm
Method: as §3, §4

B. subtilis = assay: standard disc plate assay, 12.5 mm paper discs (zone of inhibition), B. subtilis; type: cell-based, Bacillus subtilis; conditions: conclusion in words from the above results
From the text: as §3

S. lutea UC 130 = assay: agar diffusion (standard agar disc plate) assay, S. lutea UC 130; type: cell-based; set-up: unit: mm
Method: as §3, §4

St. faecalis UC 694 = assay: standard microplate test in BHI Agar (MIC), St. faecalis UC 694; type: cell-based; conditions: Enterococcus faecalis, UC694, 20 h, S. faecalis UC 694; retest table, group (7β), (14β), neamine control; read-out: Minimum Inhibitory Concentration
Method: as §1, §2

P. rettgeri UC 339 = assay: standard microplate test in BHI Agar (MIC), P. rettgeri UC 339; type: cell-based; conditions: Providencia rettgeri, UC339, 20 h; P. rettgeri UC 339; retest table, group (7β), (14β), neamine control; read-out: Minimum Inhibitory Concentration
Method: as §1, §2

B. cereus UC 3145 = assay: agar diffusion (standard agar disc plate) assay, B. cereus UC 3145; type: cell-based, Bacillus cereus; set-up: unit: mm
Method: as §3, §4

S. marcescens UC 131 = assay: standard microplate test in BHI Agar (MIC), S. marcescens UC 131; type: cell-based; conditions: Serratia marcescens, UC131, 20 h; S. marcescens UC 131; retest table, group (7β), (14β), neamine control; read-out: Minimum Inhibitory Concentration
Method: as §1, §2

P. vulgaris UC 93 [2] = assay: standard microplate test in BHI Agar (MIC), P. vulgaris UC 93; type: cell-based; conditions: Proteus vulgaris, UC93, 20 h, P. vulgaris UC 93; retest table, group (7β), (14β), neamine control; read-out: Minimum Inhibitory Concentration
Method: as §1, §2

B. cereus = assay: standard disc plate assay, 12.5 mm paper discs (zone of inhibition), B. cereus; type: cell-based, Bacillus cereus; conditions: conclusion in words from the above results
From the text: as §3

S. aureus UC 76 [3] = assay: agar diffusion (standard agar disc plate) assay, S. aureus UC 76; type: cell-based, Staphylococcus aureus; set-up: unit not given here
Method: as §3, §4

D. pneumoniae UC 41 = assay: standard microplate test in BHI Agar (MIC), D. pneumoniae UC 41; type: cell-based; conditions: Streptococcus pneumoniae, UC41, 20 h, D. pneumoniae UC 41; retest table, group (7β), (14β), neamine control; read-out: Minimum Inhibitory Concentration
Method: as §1, §2

S. flexneri UC 143 = assay: standard microplate test in BHI Agar (MIC), S. flexneri UC 143; type: cell-based; conditions: Shigella flexneri, UC143, 20 h, retest table, group (7β), (14β), neamine control, read-out: Minimum Inhibitory Concentration
Method: as §1, §2

P. mirabilis A-63 = assay: standard microplate test in BHI Agar (MIC), P. mirabilis A-63; type: cell-based; conditions: Proteus mirabilis, A63, 20 h; P. mirabilis A-63; retest table, group (7β), (14β), neamine control; read-out: Minimum Inhibitory Concentration
Method: as §1, §2

Ps. aeruginosa UC 95 [4] = assay: agar diffusion (standard agar disc plate) assay, Ps. aeruginosa UC 95; type: cell-based
Method: as §3, §4

S. typhi TG-3 = assay: standard microplate test in BHI Agar (MIC), S. typhi TG-3; type: cell-based; conditions: Salmonella enterica, 20 h, read-out: Minimum Inhibitory Concentration
Method: as §1, §2

Ps. aeruginosa UC 95 [5] = assay: standard microplate test in BHI Agar (MIC), Ps. aeruginosa UC 95; type: cell-based; conditions: Pseudomonas aeruginosa, UC95, 20 h, Ps. aeruginosa UC 95; retest table, group (7β), (14β), neamine control; read-out: Minimum Inhibitory Concentration
Method: as §1, §2

E. coli UC 51 = assay: agar diffusion (standard agar disc plate) assay, E. coli UC 51; type: cell-based, Escherichia coli; set-up: unit not given here
Method: as §3, §4

S. aureus UC 76 [6] = assay: standard microplate test in BHI Agar (MIC), S. aureus UC 76; type: cell-based, Staphylococcus aureus
Method: as §1, §2

K. pneumoniae UC 58 = assay: standard microplate test in BHI Agar (MIC), K. pneumoniae UC 58; type: cell-based; conditions: Klebsiella pneumoniae, UC58, 20 h; K. pneumoniae UC 58; retest table, group (7β), (14β), neamine control; read-out: Minimum Inhibitory Concentration
Method: as §1, §2

For NC[C@H]1O[C@H](O[C@H]2[C@H](O)[C@@H](O)[C@H](N)C[C@@H]2N)[C@H](N)[C@@H](O[C@@H]2O[C@H](CO)[C@@H](O)[C@H]2O)[C@@H]1O [Compound (14β), 3'-O-(β-D-Ribofuranosyl)neamine], the MIC (P. morgani UC 3186) was 1000 µg/mL (≈ 2200 µM), the “Agar Diffusion Assay” value (K. pneumoniae UC 57; Full strength) was 31 and the “Agar Diffusion Assay” value (K. pneumoniae UC 57; dilution 1 : 2) was 29. The “Agar Diffusion Assay” value (K. pneumoniae UC 57; dilution 1 : 4) was 27, the “Agar Diffusion Assay” value (K. pneumoniae UC 57; dilution 1 : 8) was 23 and the MIC (E. coli UC 45) was 1000 µg/mL (≈ 2200 µM). For the same molecule, the MIC (S. hemolyticus UC 152) was 1000 µg/mL (≈ 2200 µM), the “Agar Diffusion Assay” value (B. subtilis UC 564; Full Strength) was 37 and the “Agar Diffusion Assay” value (B. subtilis UC 564; dilution 1 : 2) was 35.5. The “Agar Diffusion Assay” value (B. subtilis UC 564; dilution 1 : 4) was 33, the “Agar Diffusion Assay” value (B. subtilis UC 564; dilution 1 : 8) was 30.5 and the “Agar Diffusion Assay” value (P. vulgaris UC 93 [1]; Full Strength) was 26. For the same molecule, the “Agar Diffusion Assay” value (P. vulgaris UC 93 [1]; dilution 1 : 2) was 22, the “Agar Diffusion Assay” value (P. vulgaris UC 93 [1]; dilution 1 : 4) was 19.5 and the “Agar Diffusion Assay” value (P. vulgaris UC 93 [1]; dilution 1 : 8) was 16. The “active against Bacillus subtilis” value (B. subtilis) was “active”, the “Agar Diffusion Assay” value (S. lutea UC 130; Full strength) was 25 and the “Agar Diffusion Assay” value (S. lutea UC 130; dilution 1 : 2) was 22.5. The “Agar Diffusion Assay” value (S. lutea UC 130; dilution 1 : 4) was 19, the “Agar Diffusion Assay” value (S. lutea UC 130; dilution 1 : 8) was 15 and the MIC (St. faecalis UC 694) was 1000 µg/mL (≈ 2200 µM). For the same molecule, the MIC (P. rettgeri UC 339) was 1000 µg/mL (≈ 2200 µM), the “Agar Diffusion Assay” value (B. cereus UC 3145; Full Strength) was 25.5 and the “Agar Diffusion Assay” value (B. cereus UC 3145; dilution 1 : 2) was 24. For the same molecule, the “Agar Diffusion Assay” value (B. cereus UC 3145; dilution 1 : 4) was 21, the “Agar Diffusion Assay” value (B. cereus UC 3145; dilution 1 : 8) was 18 and the MIC (S. marcescens UC 131) was 1000 µg/mL (≈ 2200 µM). For the same molecule, the MIC (P. vulgaris UC 93 [2]) was 1000 µg/mL (≈ 2200 µM), the “active against Bacillus cereus” value (B. cereus) was “active” and the “Agar Diffusion Assay” value (S. aureus UC 76 [3]; Full Strength) was 25. The “Agar Diffusion Assay” value (S. aureus UC 76 [3]; dilution 1 : 2) was 23, the “Agar Diffusion Assay” value (S. aureus UC 76 [3]; dilution 1 : 4) was 21 and the “Agar Diffusion Assay” value (S. aureus UC 76 [3]; dilution 1 : 8) was 17.5. It also gave an MIC (D. pneumoniae UC 41) of 1000 µg/mL (≈ 2200 µM), an MIC (S. flexneri UC 143) of 1000 µg/mL (≈ 2200 µM) and an MIC (P. mirabilis A-63) of 1000 µg/mL (≈ 2200 µM). The “Agar Diffusion Assay” value (Ps. aeruginosa UC 95 [4]; Full Strength) was 20, the “Agar Diffusion Assay” value (Ps. aeruginosa UC 95 [4]; dilution 1 : 2) was 17 and the “Agar Diffusion Assay” value (Ps. aeruginosa UC 95 [4]; dilution 1 : 4) was 14. The MIC (S. typhi TG-3) was 1000 µg/mL (≈ 2200 µM), the MIC (Ps. aeruginosa UC 95 [5]) was 1000 µg/mL (≈ 2200 µM) and the “Agar Diffusion Assay” value (E. coli UC 51; Full Strength) was 27. For the same molecule, the “Agar Diffusion Assay” value (E. coli UC 51; dilution 1 : 2) was 24.5, the “Agar Diffusion Assay” value (E. coli UC 51; dilution 1 : 4) was 22 and the “Agar Diffusion Assay” value (E. coli UC 51; dilution 1 : 8) was 18. The MIC (S. aureus UC 76 [6]; Staphylococcus aureus, UC76, 20 h, S. aureus UC 76, retest table, group (7β), (14β), neamine control, read-out: Minimum Inhibitory Concentration) was 1000 µg/mL (≈ 2200 µM), the “active against Staphylococcus aureus” value (S. aureus UC 76 [6]; conclusion in words from the above results) was “active” and the MIC (K. pneumoniae UC 58) was 500 µg/mL (≈ 1100 µM).

Reference: patent US3984393A, “Aminoglycoside antibiotics” (The Upjohn Company, priority 1975, dated 1976)
